Data from ChEMBL document CHEMBL1152943, “Synthesis and in vitro anti-hepatitis B virus activity of 6H-[1]benzothiopyrano[4,3-b]quinolin-9-ols” (Bioorg Med Chem, 2009).

How the values were obtained:
[1] = Selectivity index, ratio of TC50 for human HepG2(2.2.15) cells to IC50 for inhibition of HBV DNA replication
[2] = Cytotoxicity against human HepG2(2.2.15) cells after 24 hrs by neutral red dye staining; assay type: functional; details: HepG2 2.2.15, 24 h
Hepatitis B virus [3] = assay: Antiviral activity against HBV infected in human HepG2(2.2.15) cells assessed as inhibition of HBV DNA replication; assay type: functional, organism-based
Hepatitis B virus [4] = assay: Antiviral activity against HBV infected in human HepG2(2.2.15) cells assessed as inhibition of HBV surface antigen at < TC50; assay type: functional, organism-based
Hepatitis B virus [5] = assay: Antiviral activity against HBV infected in human HepG2(2.2.15) cells assessed as inhibition of HBV surface antigen; assay type: functional, organism-based
[6] = Selectivity index, ratio of TC50 for human HepG2(2.2.15) cells to IC50 for inhibition of HBV surface antigen
[7] = Hepatitis B virus, HepG2 2.2.15, read-out: IC50

IC50 (Hepatitis B virus [3]; [7]) | IC50 (Hepatitis B virus [3]; hepg2 2.2.15) | IC50 (Hepatitis B virus [5]) | Structure (SMILES) | Selectivity Index [1] | CC50 [2] | IC50 (Hepatitis B virus [4]) | Selectivity Index [6]
2 µM |  |  | CCN(CC)Cc1c(O)c(OC)cc2nc3c(cc12)CSc1ccc(C)cc1-3 | 6 | 12 µM | Not Active | 
 | Not Active | 9.3 µM | COc1cc2nc3c(cc2c(CN(C)C)c1O)CSc1ccccc1-3 |  | 36.5 µM |  | 3.9
 | Not Active | 22.1 µM | COc1cc2nc3c(cc2c(CN(C)C)c1O)CSc1ccc(C)cc1-3 |  | 67.3 µM |  | 3
 | Not Active |  | CCN(CC)Cc1c(O)c(OC)cc2nc3c(cc12)CSc1ccccc1-3 |  | 39 µM | Not Active | 
107 µM |  |  | COc1cc2nc3c(cc2c(CN2CCN(C)CC2)c1O)CSc1ccc(C)cc1-3 | 4.9 | 527 µM | Not Active | 
56.3 µM |  |  | COc1cc2nc3c(cc2c(CN2CCCC2)c1O)CSc1ccc(C)cc1-3 | 2.6 | 146 µM | Not Active | 
14.7 µM |  |  | COc1cc2nc3c(cc2c(CN2CCOCC2)c1O)CSc1ccc(C)cc1-3 | 12.4 | 181 µM | Not Active | 
2.4 µM |  |  | CCN(CC)Cc1c(O)c(OC)cc2nc3c(cc12)CSc1cc(F)ccc1-3 | 8.7 | 20.7 µM | Not Active | 
47.7 µM |  |  | COc1cc2nc3c(cc2c(CN2CCCC2)c1O)CSc1ccc(F)cc1-3 | 9.1 | 435 µM | Not Active | 
 | Not Active |  | COc1cc2nc3c(cc2c(CN2CCOCC2)c1O)CSc1cc(C)ccc1-3 |  | 262 µM | Not Active | 
 | Not Active | 13.8 µM | COc1cc2nc3c(cc2c(CN(C)C)c1O)CSc1c(C)cc(C)cc1-3 |  | 32.4 µM |  | 2.4

The remaining lines, values behind:

Structure (SMILES) | IC50 (Hepatitis B virus [3]; [7]) | IC50 (Hepatitis B virus [3]; hepg2 2.2.15) | IC50 (Hepatitis B virus [5]) | Selectivity Index [1] | CC50 [2] | IC50 (Hepatitis B virus [4]) | Selectivity Index [6]
COc1cc2nc3c(cc2c(CN2CCN(C)CC2)c1O)CSc1cc(F)ccc1-3 |  | Not Active |  |  | 13.5 µM | Not Active | 
COc1cc2nc3c(cc2c(CN2CCOCC2)c1O)CSc1cc(F)ccc1-3 |  | Not Active |  |  | 28.8 µM | Not Active | 
COc1cc2nc3c(cc2c(CN2CCCC2)c1O)CSc1cc(F)ccc1-3 | 173 µM |  |  | 3.3 | 566 µM | Not Active | 
COc1cc2nc3c(cc2c(CN2CCCCC2)c1O)CSc1c(C)cc(C)cc1-3 | 4.2 µM |  |  | 5.3 | 21.9 µM | Not Active | 
Nc1ccn([C@@H]2CS[C@H](CO)O2)c(=O)n1 [LAMIVUDINE] | 240 µM |  |  | 9.1 | 2180 µM | Not Active | 
COc1cc2nc3c(cc2c(CN2CCN(C)CC2)c1O)CSc1ccccc1-3 |  | Not Active |  |  | 25.2 µM | Not Active | 
COc1cc2nc3c(cc2c(CN2CCOCC2)c1O)CSc1ccccc1-3 |  | Not Active |  |  | 42.1 µM | Not Active | 
COc1cc2nc3c(cc2c(CN2CCOCC2)c1O)CSc1c(C)cc(C)cc1-3 |  | Not Active |  |  | 50.6 µM | Not Active | 
